In brackets after ≈: the same amount, converted by molar mass.

For orientation: MIC means the lowest concentration that inhibits growth of the organism.

What all share (type): functional
In experiment [1] the test system is Citrobacter youngae. Briefly: Antibacterial activity against Citrobacter youngae isolate CyB38 harboring blaIMP-4-qacG2-aacA4-catB3 array by Etest method.
The subject of experiment [2] is Klebsiella pneumoniae. Kind of experiment: Antibacterial activity against Klebsiella pneumoniae Kp1239 transconjugant harboring IncL/M plasmid and blaIMP-4-qacG2-aacA4-catB3 array by Etest method.
Experiment [3] has as its system Serratia marcescens. Kind of experiment: Antibacterial activity against Serratia marcescens Sm2723 transconjugant harboring IncL/M plasmid and blaIMP-4-qacG2-aacA4-catB3 array by Etest method.
The test system of experiment [4] is Klebsiella pneumoniae. Briefly: Antibacterial activity against Klebsiella pneumoniae Kp7564 transconjugant harboring IncL/M plasmid and blaIMP-4-qacG2-aacA4-catB3 array by Etest method.
The test system of experiment [5] is Citrobacter amalonaticus. Kind of experiment: Antibacterial activity against Citrobacter amalonaticus Ca38009 transconjugant harboring IncL/M plasmid and blaIMP-4-qacG2-aacA4-catB3 array by Etest method.
The subject of experiment [6] is Klebsiella pneumoniae. Kind of experiment: Antibacterial activity against Klebsiella pneumoniae Kp38009 transconjugant harboring IncL/M plasmid and blaIMP-4-qacG2-aacA4-catB3 array by Etest method.
Experiment [7] deals with Enterobacter cloacae. Kind of experiment: Antibacterial activity against Enterobacter cloacae El3799 transconjugant harboring IncL/M plasmid and blaIMP-4-qacG2-aacA4-catB3 array by Etest method.
Experiment [8] has as its system Klebsiella oxytoca. Briefly: Antibacterial activity against Klebsiella oxytoca Ko0426 transconjugant harboring IncL/M plasmid and blaIMP-4-qacG2-aacA4-catB3 array by Etest method.
The test system of experiment [9] is Klebsiella pneumoniae. Briefly: Antibacterial activity against Klebsiella pneumoniae Kp149 transconjugant harboring IncA/C plasmid and blaIMP-4-qacG2-aacA4-catB3 array by Etest method.
The test system of experiment [10] is Escherichia coli. Briefly: Antibacterial activity against Escherichia coli Ec221 transconjugant harboring IncA/C plasmid and blaIMP-4-qacG2-aacA4-catB3 array by Etest method.
Experiment [11] relates to Klebsiella pneumoniae. Briefly: Antibacterial activity against Klebsiella pneumoniae Kp204 transconjugant harboring IncA/C plasmid and blaIMP-4-qacG2-aacA4-catB3 array by Etest method.
Experiment [12] deals with Serratia marcescens. Briefly: Antibacterial activity against Serratia marcescens Sm265 transconjugant harboring IncA/C plasmid and blaIMP-4-qacG2-aacA4-catB3 array by Etest method.
Experiment [13] relates to Klebsiella pneumoniae. Briefly: Antibacterial activity against Klebsiella pneumoniae isolate Kp1945 harboring IncL/M plasmid and blaIMP-4-qacG2-aacA4-catB3 and dfrA12-orfF-aadA2 arrays by Etest method.
Experiment [14] deals with Enterobacter cloacae. Kind of experiment: Antibacterial activity against Enterobacter cloacae isolate El1573 harboring IncL/M plasmid and blaIMP-4-qacG2-aacA4-catB3 array by Etest method.
Experiment [15] deals with Klebsiella pneumoniae. Kind of experiment: Antibacterial activity against Klebsiella pneumoniae isolate Kp38009 harboring IncL/M plasmid and blaIMP-4-qacG2-aacA4-catB3 array by Etest method.
Experiment [16] relates to Escherichia coli. Kind of experiment: Antibacterial activity against Escherichia coli isolate Ec9381 harboring IncL/M plasmid and blaIMP-4-qacG2-aacA4-catB3 array by Etest method.
Experiment [17] deals with Morganella morganii. Kind of experiment: Antibacterial activity against Morganella morganii isolate Mm1229 harboring IncL/M plasmid and blaIMP-4-qacG2-aacA4-catB3 array by Etest method.
The subject of experiment [18] is Enterobacter cloacae. Kind of experiment: Antibacterial activity against Enterobacter cloacae isolate El3799 harboring IncL/M plasmid and blaIMP-4-qacG2-aacA4-catB3 array by Etest method.
Experiment [19] has as its system Citrobacter amalonaticus. Briefly: Antibacterial activity against Citrobacter amalonaticus isolate Ca1614 harboring IncL/M plasmid and blaIMP-4-qacG2-aacA4-catB3 array by Etest method.
Experiment [20] relates to Citrobacter freundii. Kind of experiment: Antibacterial activity against Citrobacter freundii isolate Cf1614 harboring IncL/M plasmid and blaIMP-4-qacG2-aacA4-catB3 array by Etest method.
Experiment [21] deals with Morganella morganii. Kind of experiment: Antibacterial activity against Morganella morganii isolate Mm1614 harboring IncL/M plasmid and blaIMP-4-qacG2-aacA4-catB3 array by Etest method.
Experiment [22] has as its system Klebsiella pneumoniae. Briefly: Antibacterial activity against Klebsiella pneumoniae isolate Kp4614.
In experiment [23] the test system is Serratia marcescens. Kind of experiment: Antibacterial activity against Serratia marcescens isolate Sm220 harboring IncA/C plasmid and blaIMP-4-qacG2-aacA4-catB3 array by Etest method.
Experiment [24] concerns Serratia marcescens. Briefly: Antibacterial activity against Serratia marcescens isolate Sm211 harboring IncA/C plasmid and blaIMP-4-qacG2-aacA4-catB3 array by Etest method.
Experiment [25] concerns Citrobacter amalonaticus. Kind of experiment: Antibacterial activity against Citrobacter amalonaticus isolate Ca3927 harboring IncL/M plasmid and blaIMP-4-qacG2-aacA4-catB3 array by Etest method in presence of clavulanic acid.
Experiment [26] relates to Citrobacter amalonaticus. Briefly: Antibacterial activity against Citrobacter amalonaticus isolate Ca38009 harboring IncL/M plasmid and blaIMP-4-qacG2-aacA4-catB3 array by Etest method in presence of clavulanic acid.
The subject of experiment [27] is Klebsiella pneumoniae. Briefly: Antibacterial activity against Klebsiella pneumoniae isolate Kp38009 harboring IncL/M plasmid and blaIMP-4-qacG2-aacA4-catB3 array by Etest method in presence of clavulanic acid.
The subject of experiment [28] is Klebsiella oxytoca. Kind of experiment: Antibacterial activity against Klebsiella oxytoca isolate Ko1156 harboring IncL/M plasmid and blaIMP-4-qacG2-aacA4-catB3 array by Etest method in presence of clavulanic acid.
For experiment [29], the system named is Citrobacter freundii. Kind of experiment: Antibacterial activity against Citrobacter freundii isolate Cf1614 harboring IncL/M plasmid and blaIMP-4-qacG2-aacA4-catB3 array by Etest method in presence of clavulanic acid.
The subject of experiment [30] is Escherichia coli. Briefly: Antibacterial activity against Escherichia coli isolate Ec158 harboring IncA/C plasmid and blaIMP-4-qacG2-aacA4-catB3 array by Etest method in presence of clavulanic acid.
The test system of experiment [31] is Klebsiella pneumoniae. Briefly: Antibacterial activity against Klebsiella pneumoniae isolate Kp149 harboring IncA/C plasmid and blaIMP-4-qacG2-aacA4-catB3 array by Etest method in presence of clavulanic acid.
For experiment [32], the system named is Klebsiella pneumoniae. Briefly: Antibacterial activity against Klebsiella pneumoniae isolate Kp211 harboring IncA/C plasmid and blaIMP-4-qacG2-aacA4-catB3 array by Etest method in presence of clavulanic acid.
In experiment [33] the test system is Klebsiella pneumoniae. Briefly: Antibacterial activity against Klebsiella pneumoniae isolate Kp266 harboring IncA/C plasmid and blaIMP-4-qacG2-aacA4-catB3 array by Etest method in presence of clavulanic acid.
Experiment [34] relates to Serratia marcescens. Briefly: Antibacterial activity against Serratia marcescens isolate Sm211 harboring IncA/C plasmid and blaIMP-4-qacG2-aacA4-catB3 array by Etest method in presence of clavulanic acid.
The test system of experiment [35] is Citrobacter koseri. Briefly: Antibacterial activity against Citrobacter koseri isolate Ck211 harboring IncA/C plasmid and blaIMP-4-qacG2-aacA4-catB3 array by Etest method in presence of clavulanic acid.
Experiment [36] relates to Klebsiella pneumoniae. Kind of experiment: Antibacterial activity against Klebsiella pneumoniae Kp1239 transconjugant harboring IncL/M plasmid and blaIMP-4-qacG2-aacA4-catB3 array by Etest method in presence of clavulanic acid.
For experiment [37], the system named is Klebsiella pneumoniae. Briefly: Antibacterial activity against Klebsiella pneumoniae Kp2730 transconjugant harboring IncL/M plasmid and blaIMP-4-qacG2-aacA4-catB3 and dfrA12-orfF-aadA2 arrays by Etest method in presence of clavulanic acid.
Experiment [38] has as its system Klebsiella pneumoniae. Briefly: Antibacterial activity against Klebsiella pneumoniae Kp7564 transconjugant harboring IncL/M plasmid and blaIMP-4-qacG2-aacA4-catB3 array by Etest method in presence of clavulanic acid.
In experiment [39] the test system is Klebsiella oxytoca. Kind of experiment: Antibacterial activity against Klebsiella oxytoca Ko0426 transconjugant harboring IncL/M plasmid and blaIMP-4-qacG2-aacA4-catB3 array by Etest method in presence of clavulanic acid.
Experiment [40] concerns Citrobacter koseri. Briefly: Antibacterial activity against Citrobacter koseri Ck211 transconjugant harboring IncA/C plasmid and blaIMP-4-qacG2-aacA4-catB3 array by Etest method in presence of clavulanic acid.

As to `C[C@@H](O)[C@H]1C(=O)N2C(C(=O)O)=C(SCCNC=N)C[C@H]12` [IMIPENEM ANHYDROUS], the MIC in [1] was 8 µg/mL (≈ 26.7 µM); in experiment [2] it was 2 µg/mL (≈ 6.68 µM); in [3], 2 µg/mL (≈ 6.68 µM); in experiment [4] it was 2 µg/mL (≈ 6.68 µM); in experiment [5], 2 µg/mL (≈ 6.68 µM); in [6] it was ≤ 1 µg/mL. The MIC in experiment [7] was ≤ 1 µg/mL; in experiment [8], 4 µg/mL (≈ 13.4 µM); in [9], 4 µg/mL (≈ 13.4 µM); in experiment [10], 4 µg/mL (≈ 13.4 µM); in experiment [11] it was 4 µg/mL (≈ 13.4 µM); in experiment [12] it was 2 µg/mL (≈ 6.68 µM). The MIC was found to be 8 µg/mL (≈ 26.7 µM) in [13]; 8 µg/mL (≈ 26.7 µM) in experiment [14]; 0.5 µg/mL (≈ 1.67 µM) in [15]; 1.5 µg/mL (≈ 5.01 µM) in experiment [16]; 4 µg/mL (≈ 13.4 µM) in experiment [17]; 1 µg/mL (≈ 3.34 µM) in [18]. Further, the minimum inhibitory concentration (MIC) in experiment [19] was 4 µg/mL (≈ 13.4 µM); in [20], 4 µg/mL (≈ 13.4 µM); in experiment [21], 8 µg/mL (≈ 26.7 µM); in experiment [22] it was ≤ 1 µg/mL; in experiment [23] it was > 8 µg/mL; in experiment [24], 4 µg/mL (≈ 13.4 µM).

As to `CO/N=C(\C(=O)N[C@@H]1C(=O)N2C(C(=O)O)=C(COC(C)=O)CS[C@H]12)c1csc(N)n1` [CEFOTAXIME], the minimal inhibitory concentration (MIC) in [1] was > 32 µg/mL; in experiment [2], 32 µg/mL (≈ 70.3 µM); in experiment [3] it was 16 µg/mL (≈ 35.1 µM); in [4] it was 32 µg/mL (≈ 70.3 µM); in [5], 16 µg/mL (≈ 35.1 µM); in experiment [6], 32 µg/mL (≈ 70.3 µM). Further, the MIC in [7] is 32 µg/mL (≈ 70.3 µM); in experiment [8], 32 µg/mL (≈ 70.3 µM); in [9], > 32 µg/mL; in experiment [10], 32 µg/mL (≈ 70.3 µM); in experiment [11], > 32 µg/mL; in [12] it was > 32 µg/mL. The MIC in [13], in [14], in [15], in experiment [16], in experiment [17] and in experiment [18] was > 32 µg/mL in each case. For the same compound, the MIC in [19] was > 32 µg/mL; in experiment [20] it was > 32 µg/mL; in experiment [21], 32 µg/mL (≈ 70.3 µM); in [22], > 32 µg/mL; in [23], > 32 µg/mL; in [24] it was > 32 µg/mL.

For `NC[C@H]1O[C@H](O[C@H]2[C@H](O)[C@@H](O[C@H]3O[C@H](CO)[C@@H](O)[C@H](N)[C@H]3O)[C@H](N)C[C@@H]2N)[C@H](N)C[C@@H]1O` [TOBRAMYCIN], the MIC in experiment [1] was > 8 µg/mL; in [2] it was 8 µg/mL (≈ 17.1 µM); in [3] it was 8 µg/mL (≈ 17.1 µM); in [4], 8 µg/mL (≈ 17.1 µM); in experiment [5] it was 8 µg/mL (≈ 17.1 µM); in experiment [6] it was 8 µg/mL (≈ 17.1 µM). The MIC in [7], in [8], in [9], in experiment [10], in [11] and in experiment [12] was 8 µg/mL (≈ 17.1 µM) in each case. Besides, the MIC is > 8 µg/mL in experiment [13]; > 8 µg/mL in experiment [14]; 8 µg/mL (≈ 17.1 µM) in experiment [15]; > 8 µg/mL in [16]; > 8 µg/mL in experiment [17]; > 8 µg/mL in [18]. Besides, the MIC in experiment [19] was > 8 µg/mL; in experiment [20], > 8 µg/mL; in experiment [21], > 8 µg/mL; in experiment [22], 8 µg/mL (≈ 17.1 µM); in experiment [23] it was > 8 µg/mL; in experiment [24], > 8 µg/mL.

For the compound GENTAMICIN, the MIC in [1], in experiment [2], in experiment [3], in experiment [4], in experiment [5] and in experiment [6] was > 8 µg/mL throughout. Moreover, the MIC in experiment [7] was > 8 µg/mL; in experiment [8], > 8 µg/mL; in experiment [9] it was > 8 µg/mL; in experiment [10], < 2 µg/mL; in [11], < 2 µg/mL; in [12] it was < 2 µg/mL. Further, the MIC in experiment [13], in experiment [14], in [15], in experiment [16], in [17] and in experiment [18] was > 8 µg/mL in each case. Moreover, the MIC in experiment [19], in [20], in experiment [21], in [22], in experiment [23] and in [24] was > 8 µg/mL in each case.

Turning to `CC1(C)S[C@@H]2[C@H](NC(=O)[C@H](N)c3ccc(O)cc3)C(=O)N2[C@H]1C(=O)O` [AMOXICILLIN], the MIC in experiment [25], in experiment [26], in experiment [27], in experiment [28], in [29] and in experiment [30] was > 16 µg/mL each time. The MIC in [31], in [32], in [33], in experiment [34], in experiment [35] and in [36] was > 16 µg/mL throughout. The MIC in experiment [37], in [38], in experiment [39] and in experiment [40] was > 16 µg/mL throughout.

These data come from ChEMBL document CHEMBL1671859, “bla(IMP-4) in different genetic contexts in Enterobacteriaceae isolates from Australia” (2008).
